Measured values taken from patent US5217960A, “Erythromycin derivatives” (priority 1991, dated 1993).

Columns and labels:
Format in all cases: cell-based
ESCHERICHIA COLI H560 = assay: In vitro antibacterial activity, agar dilution MIC; conditions: E. coli H560, BHI agar, 35-37° C., 20 to 24 hours, read-out: MIC
[1] = test system: STAPHYLOCOCCUS AUREUS ATCC 6538P; assay: In vitro antibacterial activity, agar dilution MIC; conditions: ATCC6538P, 24 h
[2] = test system: STREPTOCOCCUS BOVIS A5169; assay: In vitro antibacterial activity, agar dilution MIC; conditions: S. bovis A5169; BHI agar, 35-37° C., 20 to 24 hours; read-out: MIC
[3] = test system: STAPHYLOCOCCUS AUREUS CMX 553; assay: In vitro antibacterial activity, agar dilution MIC; conditions: S. aureus CMX 553, BHI agar, 35-37° C., 20 to 24 hours, read-out: MIC
PSEUDOMONAS CEPACIA 296I = assay: In vitro antibacterial activity, agar dilution MIC; conditions: Burkholderia cepacia; P. cepacia 296I; BHI agar, 35-37° C., 20 to 24 hours; read-out: MIC
[4] = test system: STAPHYLOCOCCUS EPIDERMIDIS 3519; assay: microbe, parasite or virus in culture; conditions: S. epidermidis 3519, BHI agar, 35-37° C., 20 to 24 hours, read-out: MIC
[5] = test system: PSEUDOMONAS AERUGINOSA BMH10; assay: In vitro antibacterial activity, agar dilution MIC; conditions: P. aeruginosa BMH10, BHI agar, 35-37° C., 20 to 24 hours, read-out: MIC
[6] = test system: STAPHYLOCOCCUS AUREUS A5177; assay: In vitro antibacterial activity, agar dilution MIC; conditions: S. aureus A5177, BHI agar, 35-37° C., 20 to 24 hours, read-out: MIC
ESCHERICHIA COLI KNK 437 = assay: microbe, parasite or virus in culture; conditions: E. coli KNK 437, BHI agar, 35-37° C., 20 to 24 hours
[7] = test system: STREPTOCOCCUS PYOGENES 930 CONST; assay: In vitro antibacterial activity, agar dilution MIC; conditions: 24 h
[8] = test system: KLEBSIELLA PNEUMONIAE ATCC 8045; assay: In vitro antibacterial activity, agar dilution MIC; conditions: ATCC8045, K. pneumoniae ATCC 8045, BHI agar, 35-37° C., 20 to 24 hours, read-out: MIC
[9] = test system: STAPHYLOCOCCUS AUREUS NCTC 10649; assay: In vitro antibacterial activity, agar dilution MIC; conditions: NCTC10649, S. aureus NCTC 10649, BHI agar, 35-37° C., 20 to 24 hours, read-out: MIC
[10] = test system: STREPTOCOCCUS PYOGENES 2548 INDUC; assay: In vitro antibacterial activity, agar dilution MIC; conditions: S. pyogenes 2548 INDUC, BHI agar, 35-37° C., 20 to 24 hours, read-out: MIC
STR[…] EES61 = assay: In vitro antibacterial activity, agar dilution MIC; conditions: Streptococcus pyogenes, 24 h
Method: (§1) Representative compounds of the present invention were assayed in vitro for antibacterial activity as follows: Twelve petri dishes containing successive aqueous dilutions of the test compound mixed with 10 ml of sterilized Brain Heart Infusion (BHI) agar (Difco 0418-01-5) were prepared. Each plate was inoculated with 1:100 (or 1:10 for slow-growing strains, such as Micrococcus and Streptococcus) dilutions of up to 32 different microorganisms, using a Steers replicator block. The inoculated plates were incubated at 35°-37° C. for 20 to 24 hours. In addition, a control plate, using BHI agar containing no test compound, was prepared and incubated at the beginning and end of each test.
(§2) An additional plate containing a compound having known susceptibility patterns for the organisms being tested and belonging to the same antibiotic class as the test compound was also prepared and incubated as a further control, as well as to provide test-to-test comparability. Erythromycin A was used for this purpose.
(§3) After incubation, each disk was read. The minimum inhibitory concentration (MIC) was defined as the lowest concentration of drug yielding no growth, a slight haze, or sparsely isolated colonies on the inoculum spot as compared to the growth control.

STR[…] 508 = assay: In vitro antibacterial activity, agar dilution MIC; conditions: Streptococcus agalactiae, 24 h
Method: as §1, §2, §3

[11] = test system: ENTEROBACTER AEROGENES ATCC 13048; assay: In vitro antibacterial activity, agar dilution MIC; conditions: Klebsiella aerogenes, ATCC13048; E. aerogenes ATCC 13048; BHI agar, 35-37° C., 20 to 24 hours; read-out: MIC
STAPHYLOCOCCUS AUREUS 45 = assay: In vitro antibacterial activity, agar dilution MIC; conditions: S. aureus 45, BHI agar, 35-37° C., 20 to 24 hours, read-out: MIC
[12] = test system: STAPHYLOCOCCUS AUREUS 1775; assay: In vitro antibacterial activity, agar dilution MIC; conditions: S. aureus 1775, BHI agar, 35-37° C., 20 to 24 hours, read-out: MIC
[13] = test system: PSEUDOMONAS AERUGINOSA K799/WT; assay: In vitro antibacterial activity, agar dilution MIC; conditions: P. aeruginosa K799/WT, BHI agar, 35-37° C., 20 to 24 hours
[14] = test system: ACINETOBACTER CALCOACETICUS CMX 669; assay: In vitro antibacterial activity, agar dilution MIC; conditions: A. calcoaceticus CMX 669, BHI agar, 35-37° C., 20 to 24 hours
[15] = test system: PSEUDOMONAS AERUGINOSA A5007; assay: In vitro antibacterial activity, agar dilution MIC; conditions: P. aeruginosa A5007, BHI agar, 35-37° C., 20 to 24 hours
ESCHERICHIA COLI JUHL = assay: microbe, parasite or virus in culture; conditions: E. coli JUHL, BHI agar, 35-37° C., 20 to 24 hours, read-out: MIC
[16] = test system: PROVIDENCIA STUARTII CMX 640; assay: microbe, parasite or virus in culture; conditions: P. stuartii CMX 640, BHI agar, 35-37° C., 20 to 24 hours
ESCHERICHIA COLI DC-2 = assay: In vitro antibacterial activity, agar dilution MIC; conditions: E. coli DC-2, BHI agar, 35-37° C., 20 to 24 hours, read-out: MIC
M[…] ATCC 9341 = assay: In vitro antibacterial activity, agar dilution MIC; conditions: Micrococcus luteus, ATCC9341, 24 h
Method: as §1, §2
(§4) After incubation, each disk was read. The minimum inhibitory concentration (MIC) was defined as the lowest concentration of drug yielding no growth, a slight haze, or sparsely isolated colonies on the inoculum spot as compared to the growth control. The results of this assay, shown below in Tables 1 and 2, support the conclusion that the compounds of the invention are effective antibacterial agents.

[17] = test system: PSEUDOMONAS AERUGINOSA K799/61; assay: In vitro antibacterial activity, agar dilution MIC; conditions: 24 h
Method: as §1, §2, §4

M[…] ATCC 4698 = assay: In vitro antibacterial activity, agar dilution MIC; conditions: Micrococcus luteus, ATCC4698, 24 h
Method: as §1, §2, §4

EN[…] ATCC 8043 = assay: In vitro antibacterial activity, agar dilution MIC; conditions: Enterococcus faecium, ATCC8043, 24 h
Method: as §1, §2, §4

[18] = test system: STAPHYLOCOCCUS AUREUS 642A; assay: In vitro antibacterial activity, agar dilution MIC; conditions: 24 h
ESCHERICHIA COLI SS = assay: In vitro antibacterial activity, agar dilution MIC; conditions: E. coli SS, BHI agar, 35-37° C., 20 to 24 hours, read-out: MIC

Measured: MIC

CC[C@H]1OC(=O)[C@H](C)[C@@H](O[C@H]2C[C@@](C)(OC)[C@@H](O)[C@H](C)O2)[C@H](C)[C@@H](O[C@@H]2O[C@H](C)C[C@H](N(C)C)[C@H]2O)[C@](C)(O)C[C@@H](C)[C@@H](N)[C@H](C)[C@@H](O)[C@@]1(O)CN [Compound 15, (9R)-9,21-diamino-9-deoxo-erythromycin A]
12.5 µg/mL: [7] | STR[…] 508 | M[…] ATCC 4698 | EN[…] ATCC 8043 | [18]
3.1 µg/mL: ESCHERICHIA COLI DC-2
100 µg/mL: [2] | [3] | PSEUDOMONAS CEPACIA 296I | ESCHERICHIA COLI KNK 437 | [9] | STAPHYLOCOCCUS AUREUS 45 | [12] | ESCHERICHIA COLI JUHL
50 µg/mL: M[…] ATCC 9341
25 µg/mL: [1] | STR[…] EES61
> 100 µg/mL: all other assays above
